According to patent EP3072956A1, “Selective culture medium for polymyxin-resistant, gram-negative bacteria” (priority 2015, dated 2016):

Tests used:
[1] = test system: H. alvei; assay: MIC determination by broth microdilution (MHB-CA, CLSI); format: cell-based; conditions: strain ER
Method: (§1) Determination of MIC values were performed by broth microdilution in Cation-Adjusted Mueller-Hinton broth (MHB-CA) according to the CLSI guidelines (Clinical and Laboratory Standards Institute). Polymyxin B and colistin (Sigma-Aldrich, Saint-Louis) were tested with or without Tween 80 over a range dilution from 0.12 to 128 µg/ml. The surfactant Tween 80, at a final concentration of 0.002%, prevents the binding of polymyxins to multi-array plastic panel. Actually, the use of Tween for determination of MIC of polymyxins is still debatable. MHB-CA broth and 5.10^5 CFU/ml of each tested strain were distributed in each well. Following the EUCAST breakpoints, strains were characterized as susceptible or resistant to polymyxins.

[2] = test system: S. maltophilia; assay: as above; format: cell-based
Method: as §1

Substance	MIC ([1]; With Tween80) [µg/mL]	MIC ([1]; Without Tween80) [µg/mL]	MIC ([2]; strain Sm2, With Tween80) [µg/mL]	MIC ([2]; strain Sm2, Without Tween80) [µg/mL]	MIC ([2]; strain SmA51, With Tween80) [µg/mL]	MIC ([2]; strain SmA51, Without Tween80) [µg/mL]
colistin	16	16	>128	>128	16	32
polymyxin B	16	8	>128	>128	32	32
